This passage reports Ki results from ChEMBL document CHEMBL1926669, “Quantitative structure-activity relationships of 1,3,4-thiadiazol-2(3H)-ones and 1,3,4-oxadiazol-2(3H)-ones as human protoporphyrinogen oxidase inhibitors” (Bioorg Med Chem, 2012).

Assay [1] concerns the target T1, Protoporphyrinogen oxidase (Homo sapiens, UniProt P50336).
T1 sequence (P50336 whole entry): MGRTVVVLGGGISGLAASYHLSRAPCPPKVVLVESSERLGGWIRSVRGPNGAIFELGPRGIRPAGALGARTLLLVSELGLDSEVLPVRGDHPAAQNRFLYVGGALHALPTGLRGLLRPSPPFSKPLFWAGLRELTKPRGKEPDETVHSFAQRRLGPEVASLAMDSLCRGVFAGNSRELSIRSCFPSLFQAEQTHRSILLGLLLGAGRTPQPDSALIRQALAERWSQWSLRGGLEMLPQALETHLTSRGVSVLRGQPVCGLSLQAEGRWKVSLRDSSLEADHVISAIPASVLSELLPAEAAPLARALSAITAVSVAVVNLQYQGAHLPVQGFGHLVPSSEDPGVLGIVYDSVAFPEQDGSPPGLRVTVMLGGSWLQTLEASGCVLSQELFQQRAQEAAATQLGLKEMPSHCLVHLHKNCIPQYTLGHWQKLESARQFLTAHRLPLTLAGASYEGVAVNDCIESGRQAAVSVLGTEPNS
The assay can be described thus: Inhibition of human PPO by capillary electrophoresis method.

Assay [2] deals with T2, Protoporphyrinogen oxidase, mitochondrial (Nicotiana tabacum, UniProt O24164).
T2 sequence (O24164 whole entry): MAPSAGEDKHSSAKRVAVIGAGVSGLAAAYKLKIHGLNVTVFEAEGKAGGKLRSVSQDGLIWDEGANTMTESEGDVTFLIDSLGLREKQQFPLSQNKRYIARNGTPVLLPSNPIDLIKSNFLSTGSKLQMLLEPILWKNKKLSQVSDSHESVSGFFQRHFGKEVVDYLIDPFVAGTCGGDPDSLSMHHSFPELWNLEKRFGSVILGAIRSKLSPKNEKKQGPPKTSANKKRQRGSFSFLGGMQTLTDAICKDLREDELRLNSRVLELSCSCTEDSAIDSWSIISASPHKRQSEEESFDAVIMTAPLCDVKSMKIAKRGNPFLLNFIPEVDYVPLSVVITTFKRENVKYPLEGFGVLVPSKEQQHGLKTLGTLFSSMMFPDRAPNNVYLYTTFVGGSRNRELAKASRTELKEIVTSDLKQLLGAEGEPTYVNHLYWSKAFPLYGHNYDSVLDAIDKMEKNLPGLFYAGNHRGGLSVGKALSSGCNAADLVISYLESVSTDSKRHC
Briefly: Inhibition of Nicotiana tobacum PPO.

The target in assay [3] is T1, Protoporphyrinogen oxidase. The assay can be described thus: Inhibition of human PPO expressed in Escherichia coli BL21(DE3) by continuous fluorometric method.

SMILES strings stand for the structures.

In general, Ki refers to the dissociation constant of the complex between target and ligand, obtained from inhibition or displacement. A high value points to a looser hold on the target. Compound `CCOC(=O)CCCSc1nc2cc(-n3nc(C(C)(C)C)sc3=O)c(Cl)cc2s1` came in with an inhibition constant (Ki) in assay [1] of 17.7 µM. Still for that read-out and setting: next, `CCOC(=O)Sc1nc2cc(-n3nc(C(C)(C)C)sc3=O)c(F)cc2s1`: 0.04 µM; `COC(=O)CSc1nc2cc(-n3nc(C(C)(C)C)sc3=O)c(F)cc2s1`: 3.05 µM; `CCOC(=O)CSc1nc2cc(-n3nc(C(C)(C)C)sc3=O)c(F)cc2s1`: 0.34 µM. On the same count and under the same terms, next, `CCOC(=O)C(C)Sc1nc2cc(-n3nc(C(C)(C)C)sc3=O)c(F)cc2s1` (stereo not given): 5.89 µM. Still for that read-out and setting: to `CCOC(=O)C(C)(C)Sc1nc2cc(-n3nc(C(C)(C)C)sc3=O)c(F)cc2s1` belongs 3.46 µM; to `CC(C)OC(=O)CSc1nc2cc(-n3nc(C(C)(C)C)sc3=O)c(F)cc2s1`, 1.26 µM.

Compound `CCOC(=O)Sc1nc2cc(-n3nc(C(C)(C)C)sc3=O)c(Cl)cc2s1` displayed a Ki in assay [1] of 0.2 µM. Compared with the last compound, the Ki is about 6.3-fold lower.

`CCOC(=O)C(C)Sc1nc2cc(-n3nc(C(C)(C)C)sc3=O)c(Cl)cc2s1` (stereo not given) came in with a Ki in assay [1] of 12 µM. This Ki lies about 60-fold higher than the previous one. Same read-out and setting: next, `CCOC(=O)C(C)(C)Sc1nc2cc(-n3nc(C(C)(C)C)sc3=O)c(Cl)cc2s1`: 34.4 µM. The same measure, in the same setting: next, `C#CCSc1nc2cc(-n3nc(C(C)(C)C)sc3=O)c(Cl)cc2s1`: 21.4 µM; `CCOC(=O)CSc1nc2cc(-n3nc(C(C)(C)C)sc3=O)c(Br)cc2s1`: 15.6 µM.

As for `CCOC(=O)C(C)Sc1nc2cc(-n3nc(C(C)(C)C)sc3=O)c(Br)cc2s1` (stereo not given), the Ki in assay [1] stood at 173 µM. Compared with the last compound, the Ki is about 11-fold higher.

For `CCOC(=O)C(C)(C)Sc1nc2cc(-n3nc(C(C)(C)C)sc3=O)c(Br)cc2s1`, in assay [1], affinity was put at a Ki of 43.5 µM. Still for that read-out and setting: to `CCOC(=O)CCSc1nc2cc(-n3nc(C(C)(C)C)sc3=O)c(Br)cc2s1` belongs 27.5 µM; to `CCOC(=O)CCCSc1nc2cc(-n3nc(C(C)(C)C)sc3=O)c(Br)cc2s1`, 245 µM; to `C#CCSc1nc2cc(-n3nc(C(C)(C)C)sc3=O)c(Br)cc2s1`, 20.7 µM.

The compound `CCOC(=O)Sc1nc2cc(-n3nc(C(C)(C)C)oc3=O)c(F)cc2s1` gave a Ki in assay [1] of 0.72 µM.

As to `CCOC(=O)CCCSc1nc2cc(-n3nc(C(C)(C)C)oc3=O)c(F)cc2s1`, the Ki in assay [1] worked out at 0.36 µM.

Consider `C#CCSc1nc2cc(-n3nc(C(C)(C)C)oc3=O)c(F)cc2s1`, for which the Ki in assay [1] is 1.92 µM.

For the compound `CCOC(=O)CSc1nc2cc(-n3nc(C(C)(C)C)oc3=O)c(Cl)cc2s1`, in assay [1], affinity was put at a Ki of 1.07 µM. Compound `CCOC(=O)C(C)(C)Sc1nc2cc(-n3nc(C(C)(C)C)oc3=O)c(Br)cc2s1` registered a Ki in assay [1] of 1.58 µM. This Ki and that of the compound before are within 1.5-fold of each other.

As to `O=C(O)c1cc(Oc2ccc(C(F)(F)F)cc2Cl)ccc1[N+](=O)[O-]` [ACIFLUORFEN], the inhibitory constant (Ki) in assay [2] turned out to be 0.07 µM; in assay [3], 1.71 µM. As for `CC(C)Oc1cc(-n2nc(C(C)(C)C)oc2=O)c(Cl)cc1Cl` [OXADIAZON], the Ki in assay [1] is 2.93 µM.
